Legend:
ARNT proximal promoter = test: ChIP PCR after Yy1 pull-down; assay type: cell-based, mouse; conditions: cultured TECs, FK506 added to culture media
Procedure: DNA and protein interaction was performed with the OneDay ChIP Kit (Diagenode, Seraing, Belgium) according to the manufacturer's instructions. 2×10^7 MCT cells have been used for each ChIP reaction. Cell lysates were sonicated using an ultrasonic processor S-4000 (Misonix, Farmingdale, USA). Immunoprecipitation was performed with a ChIP grade antibody against Yy1 (ab12132, Abcam Biochemicals, Cambridge, UK) and Arnt (3718, Cell Signaling, Danvers, USA). Enriched DNA was analyzed by qRT-PCR with EpiTect ChIP qPCR primers for genomic Arnt (Qiagen, Hilden, Germany), oligonucleotide sequences for genomic Alk3 are listed in Table 10.

ARNT dimers = test: Native gel electrophoresis of endogenous ARNT in TECs; assay type: cell-based, mouse; conditions: TECs upon exposure to FK506
From the text: Tissue and cells were homogenized in NP40 lysis buffer (Life technologies, Carlsbad, USA) supplemented with protease inhibitor cocktail (Roche, Basel, Switzerland). After sonication, protein samples were resolved by a 4-12% Bis-Tris polyacrylamide gel electrophoresis system (Novex, Carlsbad, USA) and transferred onto a nitrocellulose membrane (GE Healthcare, Freiburg, Deutschland), followed by a blocking step with 5% dry milk or 5% bovine serum albumin (BSA) in TBS-T (TBS pH 7.2, 0.1% Tween-20) to prevent unspecific bindings. After incubation with respective primary antibodies against ALK3 (ABD51, Merck Millipore, Billerica, USA) and ALK6 (ABD50, Merck Millipore, Billerica, USA), pSmad1/5/8 (13820, Cell Signaling, Danvers, USA), Arnt (3718, Cell Signaling, Danvers, USA), Fkbp12 (ab2918, Abcam Biochemicals, Cambridge, UK), NFATc1 (sc-7294, Santa Cruz Biotechnology, Dallas, USA), NFATc2 (sc-7295, Santa Cruz Biotechnology, Dallas, USA), β-actin (A5316, Sigma, St. Louis, USA) and Gapdh (5G4, HyTest, Turku, Finland), secondary HRP-conjugated antibodies were used (Dako, Glostrup, Denmark). Luminescence was detected by using chemiluminescent substrate (Cell Signaling, Danvers, USA) on a ChemiDoc XRS system (Bio-Rad, Hercules, USA). Native protein samples were prepared with Native PAGE Sample Prep kit (Novex, Carlsbad, USA) according to the manufacturer's instruction. […]

[1] = tested on: intrarenal ARNT and ALK3 transcription; conditions: GSE1563; regimens including FK506 compared to CsA; cited from earlier work
[2] = tested on: chronically injured livers; test: CCl4-induced liver fibrosis; assay type: in vivo, mice; conditions: 10 mg/kg subcutaneously per day starting one day prior
Procedure: Eight to twelve weeks-old C57BL/6 mice were intraperitoneally injected with 0.25 (first injection), 0.5 (second injection) and 1 mL/kg body weight CCI4 (25% v/v dissolved in sterile oil) twice a week (63). Mice were sacrificed after 42 days for further analyses. Mice were injected subcutaneously with 10 mg/kg body weight per day GPI-1046 (Santa Cruz Biotechnology, Dallas, USA) in DMSO once daily starting one day prior of surgery, control mice received equivalent volume of vehicle DMSO. For oral administration, GPI-1046 stock solution was diluted in glucose-water (5%) and orally applied on the basis of an average drinking volume of 3 mL and a body weight of 20 g per mouse. Three days after challenging with UUO, mice were treated orally with either vehicle buffer glucose (5%) or 30 mg/kg body weight per day GPI-1046, respectively. […] For morphometric analysis of interstitial fibrosis, fibrotic areas were assessed by using cellSens (Olympus, Tokyo, Japan) software. Ten visual fields were selected randomly for each MTS stained section at 200× magnification and the relative interstitial fibrotic area was evaluated by using a 10 mm2 graticule. Tubular damage was analysed after PAS stain and graded according to a semi-quantitative score of 0 to 3 (0: normal, 1: mild, 2: moderate, 3: severe) at 400× magnification in a total number of 100 tubules per section (158). […]

SMILES | YY1 binding to the ARNT proximal promoter (ARNT proximal promoter) | formation of ARNT dimers (ARNT dimers) | intrarenal ARNT and ALK3 transcription [1] | ALK3-dependent canonical BMP signaling responses [2] | protection from fibrogenesis [2]
C=CC[C@@H]1/C=C(\C)C[C@H](C)C[C@H](OC)[C@H]2O[C@@](O)(C(=O)C(=O)N3CCCC[C@H]3C(=O)O[C@H](/C(C)=C/[C@@H]3CC[C@@H](O)[C@H](OC)C3)[C@H](C)[C@@H](O)CC1=O)[C@H](C)C[C@@H]2OC [FK506, tacrolimus] | reduced | further enhanced | enhanced | – | –
CCC(C)(C)C(=O)C(=O)N1CCC[C@H]1C(=O)OCCCc1cccnc1 [GPI-1046, 3-(3-pyridyl)-1-propyl-(2S)-1-(3,3-dimethyl-1,2-dioxopentyl)-2-pyrrolidinedine carboxylate] | – | – | – | equally effective | equally effective

Source: patent US12440479B2, “Prevention or treatment of chronic organ injury” (GEORG-AUGUST-UNIVERSITAET GOETTINGEN, STIFTUNG …, priority 2018, dated 2025)
